Experimental data reported in US20250353891A1 (MEDIMMUNE LIMITED, priority 2022, published 2025).
pEC50: −log10 of the molar value. Where two headings read alike, the source gives them in different places. Starred links: 1 amine or outer side, 2 acyl side, 3 side chain; linkers in the order of their positions; H or OH if unused. Non-standard residues stand in square brackets, D forms with d. Residues, ends and D or L forms follow the SMILES beside them. Groups on a side chain read outwards from the residue. *: point of attachment. C18 diacid = O=C(O)CCCCCCCCCCCCCCCCC(=O)*; γGlu = O=C(O)[C@H](CCC(=O)[*:2])N[*:1]; αMeF = C[C@](N)(Cc1ccccc1)C(=O)O; AEEA = NCCOCCOCC(=O)O; Aib = CC(C)(N)C(=O)O

Tests used:
[1] = target: human GLP-1 receptor (hGLP-1R) (Homo sapiens, UniProt P43220); test: cAMP production (HTRF) in CHO cells expressing hGLP-1R; type: cell-based; set-up: expressed in transfected cells; details: for pEC50: cAMP in CHO hGLP-1R cells, geometric mean, read-out: hGLP-1R EC50; for % Relative Potency Ratio: % GLP-1R activity relative to GLP-1 / % GlucR activity relative to glucagon
In short: (§1)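 Potency values represent EC50 from 4-parameter logistic curves of HTRF % Delta F signal. Receptor-expressing CHO cells (hGCGR 2×10^5 cells/mL, hGLP-1R 1×10^5 cells/mL) were exposed for 30 min at room temperature before two-step cAMP detection.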

[2] = target: human glucagon receptor (hGCGR) (Homo sapiens, UniProt P47871); test: cAMP production (HTRF) in CHO cells expressing hGCGR; type: cell-based; set-up: expressed in transfected cells; details: cAMP in CHO hGCGR cells, geometric mean, read-out: hGluc-R EC50
In short: as §1

[3] = Table 6, peptides modified at position 17
[4] = Table 7, peptides modified at position 20

human GLP-1 receptor (hGLP-1R), sequence (P43220 24-463): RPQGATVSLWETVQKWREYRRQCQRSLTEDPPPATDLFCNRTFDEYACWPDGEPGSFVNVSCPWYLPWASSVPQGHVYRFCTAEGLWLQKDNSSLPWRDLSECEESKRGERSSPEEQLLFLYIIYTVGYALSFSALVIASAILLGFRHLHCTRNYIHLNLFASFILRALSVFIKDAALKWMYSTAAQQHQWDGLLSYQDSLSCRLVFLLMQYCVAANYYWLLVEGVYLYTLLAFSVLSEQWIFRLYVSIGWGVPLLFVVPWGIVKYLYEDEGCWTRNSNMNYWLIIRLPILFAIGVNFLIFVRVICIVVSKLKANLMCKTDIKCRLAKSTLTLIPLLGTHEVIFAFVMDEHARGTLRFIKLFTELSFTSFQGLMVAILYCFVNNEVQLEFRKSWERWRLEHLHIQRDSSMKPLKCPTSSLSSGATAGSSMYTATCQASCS
human glucagon receptor (hGCGR), sequence (P47871 26-477): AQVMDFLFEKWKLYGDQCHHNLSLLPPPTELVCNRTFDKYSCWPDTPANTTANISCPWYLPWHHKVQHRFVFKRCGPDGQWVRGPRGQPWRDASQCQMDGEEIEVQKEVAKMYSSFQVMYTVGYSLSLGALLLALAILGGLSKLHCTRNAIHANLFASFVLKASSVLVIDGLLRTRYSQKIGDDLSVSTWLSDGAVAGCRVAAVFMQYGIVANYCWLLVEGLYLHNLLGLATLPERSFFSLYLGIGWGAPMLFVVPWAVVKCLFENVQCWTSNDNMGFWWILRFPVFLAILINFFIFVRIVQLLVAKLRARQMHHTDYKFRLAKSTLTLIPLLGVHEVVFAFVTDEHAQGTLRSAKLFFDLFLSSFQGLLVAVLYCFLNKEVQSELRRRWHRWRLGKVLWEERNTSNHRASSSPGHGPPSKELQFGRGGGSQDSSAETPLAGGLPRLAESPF

Row | SMILES | pEC50 [1, 3] | % Relative Potency Ratio ([1]; Table 6) | pEC50 [2, 3] | pEC50 [1, 4] | % Relative Potency Ratio ([1]; Table 7) | pEC50 [2, 4]
1 | CC[C@H](C)[C@H](NC(=O)[C@H](Cc1ccccc1)NC(=O)[C@H](CC(=O)O)NC(=O)[C@H](CCCNC(=N)N)NC(=O)[C@H](C)NC(=O)[C@H](CCCNC(=N)N)NC(=O)[C@H](CCCCNC(=O)COCCOCCNC(=O)COCCOCCNC(=O)CC[C@H](NC(=O)CCCCCCCCCCCCCCCCC(=O)O)C(=O)O)NC(=O)[C@@H](NC(=O)[C@H](CC(=O)O)NC(=O)[C@H](CC(C)C)NC(=O)[C@](C)(Cc1ccccc1)NC(=O)[C@H](CCCCN)NC(=O)[C@H](CO)NC(=O)[C@@H](NC(=O)[C@H](CC(=O)O)NC(=O)[C@H](CO)NC(=O)[C@@H](NC(=O)[C@H](Cc1ccccc1)NC(=O)[C@@H](NC(=O)CNC(=O)[C@H](CCC(N)=O)NC(=O)C(C)(C)NC(=O)[C@@H](N)Cc1c[nH]cn1)[C@@H](C)O)[C@@H](C)O)C(C)C)[C@@H](C)O)C(=O)N[C@@H](C)C(=O)N[C@@H](Cc1c[nH]c2ccccc12)C(=O)N[C@@H](CC(C)C)C(=O)N[C@@H](CC(C)C)C(=O)NC(C)(C)C(=O)N[C@@H](CCC(=O)O)C(=O)O [Peptide 198] (H-H[Aib]QGTFTSDVSK[αMeF]LDTK([AEEA-AEEA-γGlu-C18 diacid])RARDFIAWLL[Aib]E-OH; N-terminus assumed) | 9.67 | 2.8 | 9.52 | – | – | –
2 | CC[C@H](C)[C@H](NC(=O)[C@H](Cc1ccccc1)NC(=O)[C@H](CC(=O)O)NC(=O)[C@H](CCCNC(=N)N)NC(=O)[C@H](C)NC(=O)[C@H](CCCNC(=N)N)NC(=O)[C@H](CCCCNC(=O)COCCOCCNC(=O)COCCOCCNC(=O)CC[C@H](NC(=O)CCCCCCCCCCCCCCCCC(=O)O)C(=O)O)NC(=O)[C@@H](NC(=O)[C@H](CC(=O)O)NC(=O)[C@H](CC(C)C)NC(=O)[C@](C)(Cc1ccccc1)NC(=O)[C@H](CCCCN)NC(=O)[C@H](CO)NC(=O)[C@@H](NC(=O)[C@H](CC(=O)O)NC(=O)[C@H](CO)NC(=O)[C@@H](NC(=O)[C@H](Cc1ccccc1)NC(=O)[C@@H](NC(=O)CNC(=O)[C@H](CCC(N)=O)NC(=O)C(C)(C)NC(=O)[C@@H](N)Cc1c[nH]cn1)[C@@H](C)O)[C@@H](C)O)C(C)C)[C@@H](C)O)C(=O)N[C@@H](C)C(=O)N[C@@H](Cc1c[nH]c2ccccc12)C(=O)N[C@@H](CC(C)C)C(=O)N[C@@H](CC(C)C)C(=O)N[C@@H](CCC(=O)O)C(=O)NC(C)(C)C(=O)NCC(=O)O [Peptide 199] (H-H[Aib]QGTFTSDVSK[αMeF]LDTK([AEEA-AEEA-γGlu-C18 diacid])RARDFIAWLLE[Aib]G-OH) | 10.50 | 11.3 | 9.74 | – | – | –
3 | CC(C)C[C@H](NC(=O)[C@H](Cc1c[nH]c2ccccc12)NC(=O)[C@H](C)NC(=O)[C@@H](NC(=O)[C@H](Cc1ccccc1)NC(=O)[C@H](CC(=O)O)NC(=O)[C@H](CCCNC(=N)N)NC(=O)[C@H](C)NC(=O)[C@H](CCCNC(=N)N)NC(=O)[C@H](CCCCNC(=O)COCCOCCNC(=O)COCCOCCNC(=O)CC[C@H](NC(=O)CCCCCCCCCCCCCCCCC(=O)O)C(=O)O)NC(=O)[C@@H](NC(=O)[C@H](CC(=O)O)NC(=O)[C@H](CC(C)C)NC(=O)[C@](C)(Cc1ccccc1)NC(=O)[C@H](CCCCN)NC(=O)[C@H](CO)NC(=O)[C@@H](NC(=O)[C@H](CC(=O)O)NC(=O)[C@H](CO)NC(=O)[C@@H](NC(=O)[C@H](Cc1ccccc1)NC(=O)[C@@H](NC(=O)CNC(=O)[C@H](CCC(N)=O)NC(=O)C(C)(C)NC(=O)[C@@H](N)Cc1c[nH]cn1)[C@@H](C)O)[C@@H](C)O)C(C)C)[C@@H](C)O)C(C)C)C(=O)N[C@@H](CC(C)C)C(=O)N[C@@H](CCC(=O)O)C(=O)NC(C)(C)C(=O)NCC(=O)O [Peptide 200] (H-H[Aib]QGTFTSDVSK[αMeF]LDTK([AEEA-AEEA-γGlu-C18 diacid])RARDFVAWLLE[Aib]G-OH) | 10.64 | 8.5 | 10.01 | – | – | –
4 | CC(C)C[C@H](NC(=O)[C@H](Cc1c[nH]c2ccccc12)NC(=O)[C@H](C)NC(=O)[C@@H](NC(=O)[C@H](Cc1ccccc1)NC(=O)[C@H](CC(=O)O)NC(=O)[C@H](CCCNC(=N)N)NC(=O)[C@H](C)NC(=O)[C@H](CCCNC(=N)N)NC(=O)[C@H](CCCCNC(=O)COCCOCCNC(=O)COCCOCCNC(=O)CC[C@H](NC(=O)CCCCCCCCCCCCCCCCC(=O)O)C(=O)O)NC(=O)[C@@H](NC(=O)[C@H](CC(=O)O)NC(=O)[C@H](CC(C)C)NC(=O)[C@](C)(Cc1ccccc1)NC(=O)[C@H](CCCCN)NC(=O)[C@H](CO)NC(=O)[C@@H](NC(=O)[C@H](CC(=O)O)NC(=O)[C@H](CO)NC(=O)[C@@H](NC(=O)[C@H](Cc1ccccc1)NC(=O)[C@@H](NC(=O)CNC(=O)[C@H](CCC(N)=O)NC(=O)C(C)(C)NC(=O)[C@@H](N)Cc1c[nH]cn1)[C@@H](C)O)[C@@H](C)O)C(C)C)[C@@H](C)O)C(C)C)C(=O)N[C@@H](CCC(=O)O)C(=O)N[C@@H](C)C(=O)NC(C)(C)C(=O)NCC(=O)O [Peptide 201] (H-H[Aib]QGTFTSDVSK[αMeF]LDTK([AEEA-AEEA-γGlu-C18 diacid])RARDFVAWLEA[Aib]G-OH) | 10.64 | 15.9 | 9.74 | – | – | –

The next lines start with the values.

Row | pEC50 [1, 3] | % Relative Potency Ratio ([1]; Table 6) | pEC50 [2, 3] | pEC50 [1, 4] | % Relative Potency Ratio ([1]; Table 7) | pEC50 [2, 4] | SMILES
5 | 10.75 | 26.9 | 9.62 | – | – | – | CC(C)C[C@H](NC(=O)[C@H](Cc1c[nH]c2ccccc12)NC(=O)[C@H](CCC(N)=O)NC(=O)[C@@H](NC(=O)[C@H](Cc1ccccc1)NC(=O)[C@H](CC(=O)O)NC(=O)[C@H](CCCNC(=N)N)NC(=O)[C@H](C)NC(=O)[C@H](CCCNC(=N)N)NC(=O)[C@H](CCCCNC(=O)COCCOCCNC(=O)COCCOCCNC(=O)CC[C@H](NC(=O)CCCCCCCCCCCCCCCCC(=O)O)C(=O)O)NC(=O)[C@@H](NC(=O)[C@H](CC(=O)O)NC(=O)[C@H](CC(C)C)NC(=O)[C@](C)(Cc1ccccc1)NC(=O)[C@H](CCCCN)NC(=O)[C@H](CO)NC(=O)[C@@H](NC(=O)[C@H](CC(=O)O)NC(=O)[C@H](CO)NC(=O)[C@@H](NC(=O)[C@H](Cc1ccccc1)NC(=O)[C@@H](NC(=O)CNC(=O)[C@H](CCC(N)=O)NC(=O)C(C)(C)NC(=O)[C@@H](N)Cc1c[nH]cn1)[C@@H](C)O)[C@@H](C)O)C(C)C)[C@@H](C)O)C(C)C)C(=O)N[C@@H](CCC(=O)O)C(=O)N[C@@H](C)C(=O)NC(C)(C)C(=O)NCC(=O)O [Peptide 202] (H-H[Aib]QGTFTSDVSK[αMeF]LDTK([AEEA-AEEA-γGlu-C18 diacid])RARDFVQWLEA[Aib]G-OH; N-terminus assumed)
6 | – | – | – | 10.52 | 0.5 | 11.09 | CC[C@H](C)[C@H](NC(=O)[C@H](Cc1c[nH]c2ccccc12)NC(=O)[C@H](CCC(N)=O)NC(=O)[C@@H](NC(=O)[C@H](Cc1ccccc1)NC(=O)[C@H](CC(=O)O)NC(=O)[C@H](CCCCNC(=O)COCCOCCNC(=O)COCCOCCNC(=O)CC[C@H](NC(=O)CCCCCCCCCCCCCCCCC(=O)O)C(=O)O)NC(=O)[C@H](C)NC(=O)[C@H](C)NC(=O)[C@H](CCCNC(=N)N)NC(=O)[C@H](CO)NC(=O)[C@H](CC(=O)O)NC(=O)[C@H](CC(C)C)NC(=O)[C@](C)(Cc1ccccc1)NC(=O)[C@H](CCCCN)NC(=O)[C@H](CO)NC(=O)[C@@H](NC(=O)[C@H](CC(=O)O)NC(=O)[C@H](CO)NC(=O)[C@@H](NC(=O)[C@](C)(Cc1ccccc1)NC(=O)[C@H](CO)NC(=O)CNC(=O)[C@H](Cc1c[nH]cn1)NC(=O)C(C)(C)NC(=O)[C@@H](N)Cc1c[nH]cn1)[C@@H](C)O)C(C)C)C(C)C)C(=O)N[C@@H](C)C(=O)N[C@@H](CC(N)=O)C(=O)N[C@H](C(N)=O)[C@@H](C)O [Peptide 205] (H-H[Aib]HGS[αMeF]TSDVSK[αMeF]LDSRAAK([AEEA-AEEA-γGlu-C18 diacid])DFVQWIANT-NH2)
7 | – | – | – | 10.15 | 0.5 | 10.74 | CC[C@H](C)[C@H](NC(=O)[C@H](Cc1c[nH]c2ccccc12)NC(=O)[C@H](CCC(N)=O)NC(=O)[C@@H](NC(=O)[C@H](Cc1ccccc1)NC(=O)[C@H](CC(=O)O)NC(=O)[C@H](CCCCNC(=O)COCCOCCNC(=O)COCCOCCNC(=O)CC[C@H](NC(=O)CCCCCCCCCCCCCCCCC(=O)O)C(=O)O)NC(=O)[C@H](C)NC(=O)C(C)(C)NC(=O)[C@H](CCCNC(=N)N)NC(=O)[C@H](CO)NC(=O)[C@H](CC(=O)O)NC(=O)[C@H](CC(C)C)NC(=O)[C@](C)(Cc1ccccc1)NC(=O)[C@H](CCCCN)NC(=O)[C@H](CO)NC(=O)[C@@H](NC(=O)[C@H](CC(=O)O)NC(=O)[C@H](CO)NC(=O)[C@@H](NC(=O)[C@](C)(Cc1ccccc1)NC(=O)[C@H](CO)NC(=O)CNC(=O)[C@H](Cc1c[nH]cn1)NC(=O)C(C)(C)NC(=O)[C@@H](N)Cc1c[nH]cn1)[C@@H](C)O)C(C)C)C(C)C)C(=O)N[C@@H](C)C(=O)N[C@@H](CC(N)=O)C(=O)N[C@H](C(N)=O)[C@@H](C)O [Peptide 206] (H-H[Aib]HGS[αMeF]TSDVSK[αMeF]LDSR[Aib]AK([AEEA-AEEA-γGlu-C18 diacid])DFVQWIANT-NH2)
